The results in this text go back to patent publication US10278971B2, “Fluorocyclopentenylcytosine methods of use” (Rexahn Pharmaceuticals, Inc., priority 2015, dated 2019).

Like-named read-outs stand apart in the source and are kept apart here.

Data set [1] in a line: First-in-human study: pharmacokinetics, safety and tolerability. It counts as in vivo. Particulars: for Cmax / Tmax / half-life / bioavailability: both sexes, human, plasma; for bioavailability: n=3, read-out: absolute bioavailability (F). The procedure:
In a first-in-human, open-label, exploratory study, the pharmacokinetics, safety and tolerability of RX-3117 were evaluated. The study duration was 14-15 days (7-day screening period; 3-day treatment period; 4 (+1)-day safety follow-up period). Nine adult male and female subjects with histologically confirmed, solid tumors enrolled in and completed the study. The subjects received RX-3117 (n=3 subjects per dose) as a single oral dose (50 mg or 100 mg) or a single intravenous dose (20 mg).

Data set [2] relates to SW1573/G-. The data set is described as follows: Cell cycle distribution by flow cytometry (PI). It counts as cell-based, human. The procedure: The effect of RX-3117 on cell cycle regulation and cell death in human non-small cell lung cancer (NSCLC) cell lines A549 (adenocarcinoma), SW1573 (alveolar carcinoma) and SW1573/G- (SW1573 cell line resistant to gemcitabine) and H460 (large cell carcinoma) was assessed. The A549 and H460 cell lines were obtained from American Type Culture Collection (Manassas, Va., USA). The SW1573 cell line, obtained from Dr. Johan van Rijn (see Keiser et al., Cancer Research, 49:2988-2993 (1989)), also served as the parental cell line for SW1573/G-. A549, SW1573, and SW1573/G- and H460 were kept in exponential growth in T25 flasks (Greiner Bio-One GmbH, Frickenhausen, Germany) and cultured in Dulbecco's minimal essential medium (DMEM) or RPMI 1640 (A549) supplemented with 10% heat-inactivated fetal bovine serum (FBS) 1% streptomycin and penicillin 20 mM HEPES and maintained in 37° C. water saturated atmospheres of 5% CO2. […] The cells stained with the PI solution were analyzed by FACSCalibur™ (BD Biosciences, Mount View, Calif., USA). Data was analyzed with CellQuest™ Pro software.
Cell cycle distribution and apoptosis were analyzed by plating cells in flat bottom 6 well plates (Greiner Bio-One GmbH, Frickenhausen, Germany) at the density of 5,000 cells and allowed to attach for 24 h. […] Subsequently, samples were analyzed using FACSCalibur (BD Biosciences, Mount View, Calif., USA). […]
(In general: A flow cytometer gives signals particle by particle.)

Data set [3] concerns A549. Briefly: Cell cycle distribution and apoptosis by flow cytometry (PI, Annexin V). It counts as cell-based, human. The procedure:
The effect of RX-3117 on cell cycle regulation and cell death in human non-small cell lung cancer (NSCLC) cell lines A549 (adenocarcinoma), SW1573 (alveolar carcinoma) and SW1573/G- (SW1573 cell line resistant to gemcitabine) and H460 (large cell carcinoma) was assessed. The A549 and H460 cell lines were obtained from American Type Culture Collection (Manassas, Va., USA). The SW1573 cell line, obtained from Dr. Johan van Rijn (see Keiser et al., Cancer Research, 49:2988-2993 (1989)), also served as the parental cell line for SW1573/G-. A549, SW1573, and SW1573/G- and H460 were kept in exponential growth in T25 flasks (Greiner Bio-One GmbH, Frickenhausen, Germany) and cultured in Dulbecco's minimal essential medium (DMEM) or RPMI 1640 (A549) supplemented with 10% heat-inactivated fetal bovine serum (FBS) 1% streptomycin and penicillin 20 mM HEPES and maintained in 37° C. water saturated atmospheres of 5% CO2. For the cell cycle distribution, 1.5×10^5 cells were seeded in a T25 flask (Greiner Bio-One GmbH) and cultured for 72 hours after which 1 μM of RX-3117 was added and incubated for 24 hours. The cells were then harvested. After the treatment, the medium was collected in a 15 ml tube (Greiner Bio-One GmbH). The cells were washed with ice cold PBS and trypsinized (Lonza) at 37° C. The collected medium was used to inactivate trypsin of the corresponding sample and again collected in the 15 ml tube. The cells were centrifuged with the standard centrifuge program, 5 minutes at 4° C. and […]. The medium was removed, pellet washed with 1 ml PBS/0.01% BSA and centrifuged. After removal of the supernatant, the cells were fixed with 1 ml 70% ethanol and incubated at −20° C. for at least 24 hours. Subsequently, the cells were centrifuged, washed with 1 ml PBS/0.1% BSA and transferred to a FALCON FACS tube (BD, Franklin Lakes, N.J., USA). The cells were centrifuged, and the supernatant was removed followed by the addition of 0.5 μg propidium iodide (PI) (Sigma, St. Louis, Mo., USA), 0.1% trisodium citrate (Riedel-de Haen, Sigma-Aldrich Laborchemikalien GmbH, St. Louis, Mo., USA), 0.1% Triton X-100™ (Merck) and 0.1 mg/ml RNase (Sigma) (PI solution) to the samples. Subsequently, for at least 15 minutes, the cells were incubated on ice with the PI solution to stain the DNA before starting the analysis. The cells stained with the PI solution were analyzed by FACSCalibur™ (BD Biosciences, Mount View, Calif., USA). Data was analyzed with CellQuest™ Pro software.
Cell cycle distribution and apoptosis were analyzed by plating cells in flat bottom 6 well plates (Greiner Bio-One GmbH, Frickenhausen, Germany) at the density of 5,000 cells and allowed to attach for 24 h. Thereafter cytotoxic concentrations of 5×IC50 were added. The exposure time was 24 h and 48 h and for comparison the control group was included. At each time point total amount of adherent and floating cells were harvested in round-bottom FALCON tubes (BD, Franklin Lakes, N.J., USA). After centrifugation, cell pellets were resuspended in 1.0 ml propidium iodide (PI) solution (50 ug/ml PI, 0.1% sodium citrate 0.1% Triton X-100, 0.1 mg/ml ribonuclease A) or 10 ul Annexin V (cat#31490014, Immunotools) and left on ice for 30 minutes. Subsequently, samples were analyzed using FACSCalibur (BD Biosciences, Mount View, Calif., USA). For data analysis CELLQuest™ software was carried out, using gates on DNA histograms to estimate the amount of cells in sub-G1 phase (apoptotic cells).

In data set [4] the test system is PCFT. Briefly: PCFT mediated transport of radiolabeled MTX. Particulars: CEM cells, 24 hr; RX-3117 29.6 μM; DAC positive control. It is filed as cell-based, human. The source says:
In this study, the following cell lines were used: (1) CCRF-CEM cells and its MTX resistant variant CEM-MTX, characterized by a deficiency of the reduced folate carrier (RFC) (Jansen G., et al., JBC 273 (1998) 30189-30198). The PCFT gene in CEM cells is highly methylated. (Gonen N., et al., BBRC 376 (2008) 787-92.); (2) CEM cells cultured in RPMI medium with 10% fetal bovine serum (FBS); and (3) A549 and SW1573 non-small cell lung cancer (NSCLC) and A2780 ovarian cancer cell lines cultured in DMEM medium with 10% FBS.
MTX transport was measured using radiolabeled MTX in CEM wild type and CEM-MTX cell lines. CEM cells have a high RFC activity. CEM-MTX are completely deficient in RFC-mediated transport. CEM cells have a highly methylated PCFT transporter and a very low PCFT mediated transport (Gonen N., et al., BBRC 376 (2008) 787-92). MTX transport at pH 7.4 is predominantly RFC mediated and less than 2% by PCFT. Folic acid was used to inhibit PCFT mediated transport. […] CEM and CEM-MTX cells were exposed to 29.6 μM RX-3117 and to 0, 19 μM aza-CdR as a positive control. MTX transport was measured after 24 hr to the drugs in a 3 minutes uptake assay using 2 μM [3′,5,′7-3H]-MTX.

For `Nc1ccn([C@@H]2C(F)=C(CO)[C@@H](O)[C@H]2O)c(=O)n1` [RX-3117, 4-amino-1-((1S,4R,5S)-2-fluoro-4,5-dihydroxy-3-hydroxymethyl-cyclopent-2-enyl)-1H-pyrimidin-2-one], the “increase of intravenous Cmax over the peak concentrations of the oral doses” value in data set [1] (20 mg intravenous vs 50 and 100 mg oral) is given as ~4 fold. Besides, the results for the Cmax in data set [1] (single intravenous dose 20 mg), in data set [1] (single oral dose 50 mg) and in data set [1] (single oral dose 100 mg) were 1140 ng/mL, 303 ng/mL and 311 ng/mL, respectively. In addition, the time to peak (Tmax) – broadly, the time at which the peak concentration occurs – worked out at 0.25 h in data set [1] (single intravenous dose 20 mg, read-out: Tmax); 2.16 h in data set [1] (single oral dose 50 mg, read-out: mean Tmax); 2.49 h in data set [1] (single oral dose 100 mg, read-out: mean Tmax). Also, the half-life – broadly, the time in which the quantity being followed falls by half – was 13.9 h in data set [1] (single oral dose 50 mg) and 20.9 h in data set [1] (single oral dose 100 mg). Also, the bioavailability (usually dose-corrected exposure relative to a reference, in per cent) in data set [1] (single oral dose 50 mg) is 55.7%; in data set [1] (single oral dose 100 mg), 33.4%. Further, the “adverse events (AE, TEAE, SAE)” value in data set [1] (single 50 or 100 mg oral or 20 mg intravenous dose) is given as “No adverse event”. Moreover, the safety and tolerability result in data set [1] (single 50 or 100 mg oral or 20 mg intravenous dose, all subjects) was “safe and well-tolerated”. Further, the “accumulation of cells in the G1 phase” value in data set [2] (1 μM, 24 hour exposure) is reported as “induced accumulation”; in data set [3] (A549, 1 μM, 24 hour exposure), “induced accumulation”. The “accumulation of cells in the S-phase” value is “induced the accumulation” in data set [2] (5×IC50, 24 and 48 hours); “induced the accumulation” in data set [3] (A549, 5×IC50, 24 and 48 hours). Moreover, in data set [3] (A549, 1 μM, 24 hour exposure), the “increased accumulation of cells in the G1 phase” value is recorded as 20-40%. The “apoptosis, Annexin V stained cells” value in data set [3] (A549, 5 μM, 24, 48, 72 and 96 hour exposure) was “induced apoptosis”. Besides, the “apoptosis, PI stained cells in the sub-G1 phase” value in data set [3] (A549, 5×IC50, 24 and 48 hour exposure) is “induced apoptosis”. Also, the cell kill result is “No cell kill” in data set [3] (A549, 24 hour exposure) and 8% in data set [3] (A549, 48 hour exposure). Also, the “accumulation in S phase” value in data set [3] (A549, 48 hour exposure) was determined as 45%. In data set [4], the “increase of PCFT mediated transport of MTX” value is 4 fold.
